Results reported in US4091092A, “Polymyxin F and process of producing polymyxin F” (priority 1977, dated 1978).

Columns and labels:
Assay in all cases: Comparison of activities of polymyxins B and F, MIC
Format in all cases: cell-based
Escherichia coli SC9252 = conditions: Polymyxin-resistant variant of E. coli SC9251
From the text: (§1) *Organisms from the Squibb Culture Collection.
(§2) ^b Polymyxin-resistant variants of E. coli SC9251

Escherichia coli SC9253 = conditions: Polymyxin-resistant variant of E. coli SC9251
From the text: as §1, §2

Escherichia coli SC9251 = conditions: E. coli SC9251
From the text: as §1

Escherichia coli SC8599 = conditions: E. coli SC8599
From the text: as §1

Escherichia coli SC8600 = conditions: Polymyxin-resistant variant of E. coli SC8599
From the text: as §1
^a Polymyxin-resistant variant of E. coli SC8599

Substance Polymyxin B has an MIC (Escherichia coli SC9252) of 18.7 µg/mL, an MIC (Escherichia coli SC9253) of 50.0 µg/mL and an MIC (Escherichia coli SC9251) of 0.06 µg/mL. For the same substance, the MIC (Escherichia coli SC8599) was 0.1 µg/mL and the MIC (Escherichia coli SC8600) was over 100 µg/mL.
